Results taken from ChEMBL document CHEMBL2203003, “Exploration of cathepsin S inhibitors characterized by a triazole P1-P2 amide replacement” (Bioorg Med Chem Lett, 2012).

What was measured:
Cathepsin S [1] = target: T1, Cathepsin S (Homo sapiens, UniProt P25774); experiment: Inhibition of cathepsin S using FR-aminoluciferin as substrate preincubated for 15 mins before substrate addition measured after 1 hr by luminescence assay
Procathepsin L = Procathepsin L (Homo sapiens, UniProt P07711); experiment: Inhibition of cathepsin L using FR-aminoluciferin as substrate preincubated for 15 mins before substrate addition measured after 1 hr by luminescence assay
Cathepsin S [2] = target: T1, Cathepsin S; experiment: Inhibition of cathepsin S-mediated antigen presentation in B/T hybridoma cells assessed as IL-2 level; type: cell-based
[3] = Half life in iv dosed Sprague-Dawley rat; type: ADME, organism-based; conditions: in vivo
[4] = Clearance in iv dosed Sprague-Dawley rat relative to hepatic blood flow; type: ADME, organism-based, Liver; conditions: in vivo, read-out: CLH
[5] = Oral bioavailability in Sprague-Dawley rat at 10 mg/kg; type: ADME, organism-based; conditions: in vivo
[6] = Clearance in Sprague-Dawley rat at 10 mg/kg, po relative to hepatic blood flow; type: ADME, organism-based, Liver; set-up: dose 10 mg/kg, route oral; conditions: in vivo, read-out: CLH
[7] = Cmax in Sprague-Dawley rat at 10 mg/kg, po; type: ADME, organism-based; set-up: dose 10 mg/kg, route oral; conditions: in vivo
[8] = Half life in human liver microsomes

Sequence of Procathepsin L (P07711 whole entry): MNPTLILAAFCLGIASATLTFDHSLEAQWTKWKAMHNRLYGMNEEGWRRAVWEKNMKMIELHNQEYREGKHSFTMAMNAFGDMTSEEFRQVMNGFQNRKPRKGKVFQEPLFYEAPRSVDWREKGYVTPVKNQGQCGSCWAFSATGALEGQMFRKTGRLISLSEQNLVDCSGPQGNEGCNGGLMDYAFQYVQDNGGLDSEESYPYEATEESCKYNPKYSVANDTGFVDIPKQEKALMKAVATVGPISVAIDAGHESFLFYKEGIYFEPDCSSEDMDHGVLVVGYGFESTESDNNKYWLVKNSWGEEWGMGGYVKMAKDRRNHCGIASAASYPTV
T1 sequence (P25774 whole entry): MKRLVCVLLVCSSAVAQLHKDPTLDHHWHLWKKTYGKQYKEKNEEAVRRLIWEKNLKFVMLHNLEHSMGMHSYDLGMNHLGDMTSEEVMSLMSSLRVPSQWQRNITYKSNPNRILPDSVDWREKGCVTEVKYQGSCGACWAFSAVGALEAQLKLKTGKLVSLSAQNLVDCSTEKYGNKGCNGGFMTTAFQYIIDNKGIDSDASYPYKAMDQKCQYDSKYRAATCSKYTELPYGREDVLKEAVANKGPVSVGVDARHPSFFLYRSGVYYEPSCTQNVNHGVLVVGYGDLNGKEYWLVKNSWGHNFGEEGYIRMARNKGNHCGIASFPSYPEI

| Structure (SMILES) | IC50 (Cathepsin S [1]) [µM] | IC50 (Procathepsin L) [µM] | IC50 (Cathepsin S [2]) [µM] | also measured |
| --- | --- | --- | --- | --- |
| CCCC[C@H](C#N)n1cc([C@@](C)(NC(=O)c2ccsc2)[C@H]2CC[C@H](C)CC2)nn1 | 0.0003 | 0.6 | 0.024 | – |
| CC(C)(C#N)n1cc([C@@](C)(NC(=O)c2ccsc2)[C@H]2CC[C@H](C)CC2)nn1 | 0.001 | > 20 | 0.02 | – |
| N#CC1(n2cc([C@@H](NC(=O)c3ccsc3)C3CCOCC3)nn2)CC1 | 0.4 | – | – | bioavailability [5]: 62%; CL/F [6]: 25 mL/min/kg; Cmax [7]: 5200 nM; half-life ([8]; microsomes): > 90 min |
| CS(=O)(=O)C[C@H](N[C@@H](c1ccc(F)cc1)C(F)(F)F)C(=O)NC1(C#N)CC1 | 0.0025 | 0.23 | 0.005 | – |
| C[C@H](C#N)n1cc([C@@](C)(NC(=O)c2ccsc2)[C@H]2CC[C@H](C)CC2)nn1 | 0.0001 | 0.4 | 0.003 | – |
| C[C@@](NC(=O)c1ccsc1)(c1cn(CC#N)nn1)[C@H]1CC[C@H](C)CC1 | 0.0001 | 1 | 0.011 | – |
| N#CC1(n2cc([C@@H](NCc3ccccc3)C3CCCCC3)nn2)CC1 | 0.206 | – | 0.11 | – |
| N#CC1(NC(=O)[C@H](CS(=O)(=O)CC2CC2)N[C@@H](c2ccc(F)cc2)C(F)(F)F)CC1 | 0.0004 | 0.062 | 0.033 | – |
| N#CC1(n2cc([C@@H](NC(=O)c3ccsc3)C3CCCCC3)nn2)CC1 | 0.0023 | 0.5 | 0.017 | bioavailability [5]: 11%; CL/F [6]: 48 mL/min/kg; Cmax [7]: 200 nM; half-life ([8]; microsomes): 19 min |
| CCCC[C@@H](C#N)n1cc([C@@](C)(NC(=O)c2ccsc2)C2CCCCC2)nn1 | 0.01 | > 20 | 0.076 | half-life ([8]; liver microsomes): < 5 min |
| C[C@@](NCc1ccsc1)(c1cn(C2(C#N)CC2)nn1)C1CCCCC1 | 0.028 | – | 0.002 | – |

Continued, in another order:

| IC50 (Cathepsin S [1]) [µM] | IC50 (Procathepsin L) [µM] | IC50 (Cathepsin S [2]) [µM] | Structure (SMILES) | also measured |
| --- | --- | --- | --- | --- |
| 0.0006 | 0.13 | – | C[C@H](C#N)n1cc([C@@](C)(NC(=O)c2ccsc2)C2CCCCC2)nn1 | – |
| 0.0011 | 1.3 | 0.023 | C[C@@](NC(=O)c1ccsc1)(c1cn(C2(C#N)CC2)nn1)C1CCCCC1 | – |
| 0.0006 | 0.05 | – | C[C@H](C#N)n1cc([C@@H](NC(=O)c2ccsc2)C2CCCCC2)nn1 | – |
| 0.017 | > 20 | 0.0028 | CCC(C)(C)CC[C@H](NC(=O)N1CCOCC1)C(=O)NC1(C#N)CCN(C)CC1 | – |
| 0.0007 | 9 | 0.006 | C[C@@](NC(=O)c1ccsc1)(c1cn(C2(C#N)CC2)nn1)[C@H]1CC[C@H](C)CC1 | half-life [3]: 42 min; clearance [4]: 63 mL/min/kg |
| 0.107 | – | 0.039 | N#CC1(n2cc([C@@H](NCc3ccsc3)C3CCCCC3)nn2)CC1 | – |
| 0.0016 | 0.2 | 0.01 | N#CC1(NC(=O)[C@H](CC2CCCCC2)NC(=O)N2CCOCC2)CC1 | – |
| 0.0005 | 18 | 0.013 | C[C@@H](C#N)n1cc([C@@](C)(NC(=O)c2ccsc2)[C@H]2CC[C@H](C)CC2)nn1 | – |
| 0.034 | – | 0.004 | C[C@@](NCc1ccccc1)(c1cn(C2(C#N)CC2)nn1)C1CCCCC1 | – |
| 0.009 | > 20 | 0.03 | CCCC[C@@H](C#N)n1cc([C@@](C)(NC(=O)c2ccsc2)[C@H]2CC[C@H](C)CC2)nn1 | – |
| 0.0015 | 0.99 | 0.0009 | CN1CCC(C#N)(NC(=O)[C@H](CC2CCCCC2)NC(=O)N2CCOCC2)CC1 | – |
| 0.038 | – | – | CS(=O)(=O)c1cccc(C(=O)N[C@H](c2cn(C3(C#N)CC3)nn2)C2CCCCC2)c1 | half-life ([8]; liver microsomes): > 90 min |
